| melting point | Structure (SMILES) |
| --- | --- |
| 114 to 116 °C | CCOc1cc(C(=CC#N)c2ccc3ncccc3c2)ccc1OC (mixture of isomers) [compound 5, (E/Z) 3-(3-Ethoxy-4-methoxy-phenyl)-3-quinolin-6-yl-acrylonitrile] |
| 180 to 182 °C | CCOc1cc(C(=CC#N)c2ccc3c(c2)nnn3C)ccc1OC (mixture of isomers) [compound 4, (E/Z) 3-(3-Ethoxy-4-methoxy-phenyl)-3-(1-methyl-1H-benzotriazol-5-yl)-acrylonitrile] |
| 99 to 101 °C | CCOc1cc(C(=CC#N)c2ccc3c(c2)OCCN3C)ccc1OC (mixture of isomers) [compound 3, (E/Z) 3-(3-Ethoxy-4-methoxy-phenyl)-3-(4-methyl-3,4-dihydro-2H-benzo[1,4]oxazin-7-yl)-acrylonitrile] |
| 142 to 144 °C | COc1cc(OC)cc(C(=CC#N)c2ccc3ncccc3c2)c1 (mixture of isomers) [compound 6, (E/Z) 3-(3,5-Dimethoxy-phenyl)-3-quinolin-6-yl-acrylonitrile] |
| 117 to 119 °C | COc1cc(OC)cc(C(=CC#N)c2ccc3ccn(C)c3c2)c1 (mixture of isomers) [compound 7, (E/Z)-3-(3,5-Dimethoxy-phenyl)-3-(1-methyl-1H-indol-6-yl)-acrylonitrile] |
| 119 to 121 °C | COc1cc(OC)cc(C(=CC#N)c2ccc3c(c2)OCCN3C)c1 [compound 2, 3-(3,5-Dimethoxy-phenyl)-3-(4-methyl-3,4-dihydro-2H-benzo[1,4]oxazin-7-yl)-acrylonitrile] |
| 49 to 51 °C | CCOc1cc(C(=CC#N)c2ccc3c(c2)CCO3)ccc1OC (mixture of isomers) [compound 1, (E/Z) 3-(2,3-Dihydro-benzofuran-5-yl)-3-(3-ethoxy-4-methoxy-phenyl)-acrylonitrile] |
| 95 to 97 °C | CCOc1cc(C(=CC#N)c2ccc3occc3c2)ccc1OC (mixture of isomers) [compound 10, (E/Z)-3-Benzofuran-5-yl-3-(3-ethoxy-4-methoxy-phenyl)-acrylonitrile] |
| 132 to 134 °C | CCOc1cc(C(=CC#N)c2ccc3cc[nH]c3c2)ccc1OC (mixture of isomers) [compound 8, (E/Z)-3-(3-Ethoxy-4-methoxy-phenyl)-3-(1H-indol-6-yl)-acrylonitrile] |
